What was measured:
Assay in all cases: radiometric filter-binding kinase assay
PRKCZ (human) = PRKCZ (human) (UniProt Q05513)
STK16 (human) = STK16 (human) (UniProt O75716)
MAPKAPK2 (human) = MAPKAPK2 (human) (UniProt P49137)
MAP2K6 (human) = MAP2K6 (human) (UniProt P52564)
BRSK1 (human) = BRSK1 (human) (UniProt Q8TDC3)
HIPK2 (human) = HIPK2 (human) (UniProt Q9H2X6)
PIM2 (human) = PIM2 (human) (UniProt Q9P1W9)
MAP3K11 (human) = MAP3K11 (human) (UniProt Q16584)
MKNK2 (human) = MKNK2 (human) (UniProt Q9HBH9)
ABL1 (human) = ABL1 (human) (UniProt P00519)
Sequence of ABL1 (human) (P00519 whole entry, looked up): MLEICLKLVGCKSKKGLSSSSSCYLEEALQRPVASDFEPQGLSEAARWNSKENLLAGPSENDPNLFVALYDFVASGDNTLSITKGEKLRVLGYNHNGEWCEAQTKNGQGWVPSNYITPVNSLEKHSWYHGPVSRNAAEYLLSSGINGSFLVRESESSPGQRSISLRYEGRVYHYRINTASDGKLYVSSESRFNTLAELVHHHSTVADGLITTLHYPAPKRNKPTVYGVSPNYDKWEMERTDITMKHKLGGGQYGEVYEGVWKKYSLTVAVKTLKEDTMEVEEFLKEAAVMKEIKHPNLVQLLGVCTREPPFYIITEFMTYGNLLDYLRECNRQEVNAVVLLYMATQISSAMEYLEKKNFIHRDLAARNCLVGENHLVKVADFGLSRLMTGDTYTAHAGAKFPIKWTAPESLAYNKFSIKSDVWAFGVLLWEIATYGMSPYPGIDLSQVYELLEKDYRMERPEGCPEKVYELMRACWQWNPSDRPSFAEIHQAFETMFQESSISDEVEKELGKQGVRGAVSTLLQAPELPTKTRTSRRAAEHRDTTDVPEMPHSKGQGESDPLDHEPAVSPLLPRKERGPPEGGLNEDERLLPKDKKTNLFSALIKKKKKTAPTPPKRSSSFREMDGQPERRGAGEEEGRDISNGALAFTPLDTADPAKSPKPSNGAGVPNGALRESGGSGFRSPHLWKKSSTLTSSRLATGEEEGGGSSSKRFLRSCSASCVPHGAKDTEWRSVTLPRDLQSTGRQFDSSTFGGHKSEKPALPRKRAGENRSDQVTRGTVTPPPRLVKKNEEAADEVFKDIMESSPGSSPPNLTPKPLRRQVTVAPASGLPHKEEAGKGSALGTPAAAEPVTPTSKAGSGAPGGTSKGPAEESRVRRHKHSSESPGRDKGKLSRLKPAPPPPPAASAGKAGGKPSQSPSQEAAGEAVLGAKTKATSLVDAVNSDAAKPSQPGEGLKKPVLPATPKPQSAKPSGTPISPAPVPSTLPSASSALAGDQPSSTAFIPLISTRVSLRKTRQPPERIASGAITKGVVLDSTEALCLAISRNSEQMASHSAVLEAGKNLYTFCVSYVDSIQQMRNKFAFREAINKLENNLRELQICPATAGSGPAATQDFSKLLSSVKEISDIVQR

EPHA2 (human) = EPHA2 (human) (UniProt P29317)
Sequence of EPHA2 (human) (P29317 whole entry, looked up): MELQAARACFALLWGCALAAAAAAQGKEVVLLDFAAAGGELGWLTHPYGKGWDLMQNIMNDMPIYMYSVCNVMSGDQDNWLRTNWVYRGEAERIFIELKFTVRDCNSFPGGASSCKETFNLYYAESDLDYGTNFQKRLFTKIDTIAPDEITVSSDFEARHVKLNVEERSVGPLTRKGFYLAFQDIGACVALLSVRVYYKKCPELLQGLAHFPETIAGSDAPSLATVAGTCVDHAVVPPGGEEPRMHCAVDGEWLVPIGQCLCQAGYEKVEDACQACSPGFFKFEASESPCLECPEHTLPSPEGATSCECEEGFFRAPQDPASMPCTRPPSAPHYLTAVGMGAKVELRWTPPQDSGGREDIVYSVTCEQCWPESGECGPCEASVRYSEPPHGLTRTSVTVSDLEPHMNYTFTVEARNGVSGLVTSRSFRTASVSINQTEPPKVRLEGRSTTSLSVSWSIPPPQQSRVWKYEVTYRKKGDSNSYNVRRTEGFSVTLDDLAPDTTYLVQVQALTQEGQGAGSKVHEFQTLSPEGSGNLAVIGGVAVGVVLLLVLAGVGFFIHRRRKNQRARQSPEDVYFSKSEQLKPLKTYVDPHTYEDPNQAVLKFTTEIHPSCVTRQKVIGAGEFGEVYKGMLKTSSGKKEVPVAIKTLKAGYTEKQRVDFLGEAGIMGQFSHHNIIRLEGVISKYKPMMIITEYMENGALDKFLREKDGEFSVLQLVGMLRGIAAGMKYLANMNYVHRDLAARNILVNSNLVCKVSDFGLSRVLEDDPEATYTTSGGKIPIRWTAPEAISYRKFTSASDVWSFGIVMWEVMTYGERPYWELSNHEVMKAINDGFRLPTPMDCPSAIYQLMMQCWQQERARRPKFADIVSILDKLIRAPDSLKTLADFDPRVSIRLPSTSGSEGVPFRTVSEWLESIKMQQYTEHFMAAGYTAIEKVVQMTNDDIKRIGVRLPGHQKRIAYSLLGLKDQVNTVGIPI

MAP3K9 (human) = MAP3K9 (human) (UniProt P80192)
Sequence of MAP3K9 (human) (P80192 whole entry, looked up): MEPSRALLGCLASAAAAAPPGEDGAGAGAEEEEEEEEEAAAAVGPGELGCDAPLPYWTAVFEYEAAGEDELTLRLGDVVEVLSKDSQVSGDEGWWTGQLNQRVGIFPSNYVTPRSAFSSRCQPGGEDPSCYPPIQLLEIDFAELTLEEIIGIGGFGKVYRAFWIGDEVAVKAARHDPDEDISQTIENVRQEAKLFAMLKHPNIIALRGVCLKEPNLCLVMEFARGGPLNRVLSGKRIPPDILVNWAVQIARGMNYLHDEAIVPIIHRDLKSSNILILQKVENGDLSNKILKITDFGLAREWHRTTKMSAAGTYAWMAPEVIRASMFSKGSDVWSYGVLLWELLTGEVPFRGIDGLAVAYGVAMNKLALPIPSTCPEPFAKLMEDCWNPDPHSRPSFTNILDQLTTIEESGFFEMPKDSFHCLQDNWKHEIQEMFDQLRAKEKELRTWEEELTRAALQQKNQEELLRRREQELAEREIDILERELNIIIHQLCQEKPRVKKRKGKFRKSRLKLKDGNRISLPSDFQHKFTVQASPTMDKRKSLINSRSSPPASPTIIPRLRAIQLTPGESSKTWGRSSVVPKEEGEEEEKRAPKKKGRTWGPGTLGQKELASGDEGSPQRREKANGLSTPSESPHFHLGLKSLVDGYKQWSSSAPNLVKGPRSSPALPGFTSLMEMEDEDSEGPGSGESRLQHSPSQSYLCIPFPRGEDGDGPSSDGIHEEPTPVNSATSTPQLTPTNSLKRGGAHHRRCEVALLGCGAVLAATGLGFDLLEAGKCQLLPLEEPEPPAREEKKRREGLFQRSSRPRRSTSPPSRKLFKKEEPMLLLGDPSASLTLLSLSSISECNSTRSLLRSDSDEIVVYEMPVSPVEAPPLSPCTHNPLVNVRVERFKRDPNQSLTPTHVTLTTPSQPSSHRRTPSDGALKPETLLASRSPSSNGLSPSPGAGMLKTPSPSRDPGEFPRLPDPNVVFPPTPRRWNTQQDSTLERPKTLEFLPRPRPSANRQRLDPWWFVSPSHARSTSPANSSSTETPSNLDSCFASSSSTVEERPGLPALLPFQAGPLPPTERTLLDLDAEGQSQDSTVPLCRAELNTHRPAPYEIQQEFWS

CaMK1 (human) = CaMK1 (human) (UniProt Q14012)
MAPK10 (human) = MAPK10 (human) (UniProt P53779)
[1] = system: OXSR1 (human), O95747 [T185E]
CHEK2 (human) = CHEK2 (human) (UniProt O96017)
MKNK1 (human) = MKNK1 (human) (UniProt Q9BUB5)
Sequence of MKNK1 (human) (Q9BUB5 whole entry, looked up): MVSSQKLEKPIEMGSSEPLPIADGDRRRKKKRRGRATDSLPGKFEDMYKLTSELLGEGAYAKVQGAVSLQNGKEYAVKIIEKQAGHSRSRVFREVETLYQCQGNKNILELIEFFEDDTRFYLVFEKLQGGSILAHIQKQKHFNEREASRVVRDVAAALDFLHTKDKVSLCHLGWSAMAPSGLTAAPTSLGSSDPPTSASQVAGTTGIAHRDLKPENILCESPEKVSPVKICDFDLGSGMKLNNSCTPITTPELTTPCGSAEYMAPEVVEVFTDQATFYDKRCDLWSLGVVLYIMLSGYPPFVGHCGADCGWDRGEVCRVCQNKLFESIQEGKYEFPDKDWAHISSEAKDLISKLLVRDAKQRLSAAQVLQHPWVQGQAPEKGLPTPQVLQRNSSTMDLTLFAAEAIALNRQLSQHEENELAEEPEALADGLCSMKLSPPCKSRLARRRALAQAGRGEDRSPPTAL

NEK2 (human) = NEK2 (human) (UniProt P51955)
MINK1 (human) = MINK1 (human) (UniProt Q8N4C8)
PAK6 (human) = PAK6 (human) (UniProt Q9NQU5)
RPS6KA3 KD1 KD2 (human) = RPS6KA3 KD1 KD2 (human) (UniProt P51812)
CSK (human) = CSK (human) (UniProt P41240)
PLK1 (human) = PLK1 (human) (UniProt P53350)
TTK (human) = TTK (human) (UniProt P33981)
TLK1 (human) = TLK1 (human) (UniProt Q9UKI8)
DYRK2 (human) = DYRK2 (human) (UniProt Q92630)
HIPK3 (human) = HIPK3 (human) (UniProt Q9H422)
AURKB (human) = AURKB (human) (UniProt Q96GD4)

Sequence of HIPK2 (human) (Q9H2X6 whole entry, looked up): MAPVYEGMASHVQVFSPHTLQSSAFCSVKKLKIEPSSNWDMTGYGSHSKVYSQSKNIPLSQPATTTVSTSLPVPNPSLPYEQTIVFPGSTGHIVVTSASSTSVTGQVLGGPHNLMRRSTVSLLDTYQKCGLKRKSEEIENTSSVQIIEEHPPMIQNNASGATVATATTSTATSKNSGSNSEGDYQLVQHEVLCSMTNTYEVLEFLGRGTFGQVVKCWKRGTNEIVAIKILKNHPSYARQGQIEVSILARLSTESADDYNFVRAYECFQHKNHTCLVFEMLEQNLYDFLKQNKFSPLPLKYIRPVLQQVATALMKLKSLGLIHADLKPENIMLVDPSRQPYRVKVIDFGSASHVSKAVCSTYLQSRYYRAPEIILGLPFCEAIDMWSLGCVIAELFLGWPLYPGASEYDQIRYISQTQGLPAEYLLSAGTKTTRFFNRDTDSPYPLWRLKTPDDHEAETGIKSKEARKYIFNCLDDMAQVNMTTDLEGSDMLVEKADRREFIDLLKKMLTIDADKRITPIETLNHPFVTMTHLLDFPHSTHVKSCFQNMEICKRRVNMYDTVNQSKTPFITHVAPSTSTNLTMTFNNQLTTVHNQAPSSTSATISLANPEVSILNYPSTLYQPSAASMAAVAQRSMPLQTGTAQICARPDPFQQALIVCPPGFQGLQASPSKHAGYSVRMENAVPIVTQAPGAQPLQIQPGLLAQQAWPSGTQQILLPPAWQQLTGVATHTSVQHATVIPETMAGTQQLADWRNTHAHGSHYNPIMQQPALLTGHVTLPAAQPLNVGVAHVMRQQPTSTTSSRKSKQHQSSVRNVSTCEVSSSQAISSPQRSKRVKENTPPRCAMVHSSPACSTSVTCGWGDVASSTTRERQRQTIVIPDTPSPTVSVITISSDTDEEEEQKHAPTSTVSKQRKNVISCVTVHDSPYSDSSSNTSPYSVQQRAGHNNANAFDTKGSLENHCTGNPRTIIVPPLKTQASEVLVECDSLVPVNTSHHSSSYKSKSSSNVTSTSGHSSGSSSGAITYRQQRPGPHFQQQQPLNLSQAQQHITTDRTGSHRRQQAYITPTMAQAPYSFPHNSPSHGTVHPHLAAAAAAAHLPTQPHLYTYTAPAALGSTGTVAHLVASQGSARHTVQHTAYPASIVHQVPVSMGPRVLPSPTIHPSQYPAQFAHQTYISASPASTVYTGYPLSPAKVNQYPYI

residual activity (PRKCZ (human); compound 0.1 µM): 99.4%
residual activity (PRKCZ (human); compound 1.0 µM): 96%
residual activity (PRKCZ (human); compound 10.0 µM): 92.7%
residual activity (STK16 (human); compound 0.1 µM): 103%
residual activity (STK16 (human); compound 1.0 µM): 90.7%
residual activity (STK16 (human); compound 10.0 µM): 99.2%
residual activity (MAPKAPK2 (human); compound 0.1 µM): 110%
residual activity (MAPKAPK2 (human); compound 1.0 µM): 122%
residual activity (MAPKAPK2 (human); compound 10.0 µM): 113%
residual activity (MAP2K6 (human); compound 0.1 µM): 118%
residual activity (MAP2K6 (human); compound 1.0 µM): 158%
residual activity (MAP2K6 (human); compound 10.0 µM): 133%
residual activity (BRSK1 (human); compound 0.1 µM): 101%
residual activity (BRSK1 (human); compound 1.0 µM): 96.2%
residual activity (BRSK1 (human); compound 10.0 µM): 109%
residual activity (HIPK2 (human); compound 0.1 µM): 105%
residual activity (HIPK2 (human); compound 1.0 µM): 60.3%
residual activity (HIPK2 (human); compound 10.0 µM): 12.6%
residual activity (PIM2 (human); compound 0.1 µM): 106%
residual activity (PIM2 (human); compound 1.0 µM): 95%
residual activity (PIM2 (human); compound 10.0 µM): 102%
residual activity (MAP3K11 (human); compound 0.1 µM): 95.1%
residual activity (MAP3K11 (human); compound 1.0 µM): 50.3%
residual activity (MAP3K11 (human); compound 10.0 µM): 8.66%
residual activity (MKNK2 (human); compound 0.1 µM): 109%
residual activity (MKNK2 (human); compound 1.0 µM): 112%
residual activity (MKNK2 (human); compound 10.0 µM): 82.8%
residual activity (ABL1 (human); compound 0.1 µM): 51.4%
residual activity (ABL1 (human); compound 1.0 µM): 3.77%
residual activity (ABL1 (human); compound 10.0 µM): 0.874%
residual activity (EPHA2 (human); compound 0.1 µM): 74%
residual activity (EPHA2 (human); compound 1.0 µM): 19.5%
residual activity (EPHA2 (human); compound 10.0 µM): 13.7%
residual activity (MAP3K9 (human); compound 0.1 µM): 106%
residual activity (MAP3K9 (human); compound 1.0 µM): 90%
residual activity (MAP3K9 (human); compound 10.0 µM): 39.6%
residual activity (CaMK1 (human); compound 0.1 µM): 68.7%
residual activity (CaMK1 (human); compound 1.0 µM): 17.2%
residual activity (CaMK1 (human); compound 10.0 µM): 3.79%
residual activity (MAPK10 (human); compound 0.1 µM): 116%
residual activity (MAPK10 (human); compound 1.0 µM): 91.8%
residual activity (MAPK10 (human); compound 10.0 µM): 31.8%
residual activity ([1]; compound 0.1 µM): 54%
residual activity ([1]; compound 10.0 µM): 1.79%
residual activity (CHEK2 (human); compound 0.1 µM): 117%
residual activity (CHEK2 (human); compound 1.0 µM): 103%
residual activity (CHEK2 (human); compound 10.0 µM): 67.9%
residual activity (MKNK1 (human); compound 0.1 µM): 98%
residual activity (MKNK1 (human); compound 1.0 µM): 104%
residual activity (MKNK1 (human); compound 10.0 µM): 82.7%
residual activity (NEK2 (human); compound 0.1 µM): 112%
residual activity (NEK2 (human); compound 1.0 µM): 107%
residual activity (NEK2 (human); compound 10.0 µM): 93.4%
residual activity (MINK1 (human); compound 0.1 µM): 75.7%
residual activity (MINK1 (human); compound 1.0 µM): 11.4%
residual activity (MINK1 (human); compound 10.0 µM): 4.56%
residual activity (PAK6 (human); compound 0.1 µM): 104%
residual activity (PAK6 (human); compound 1.0 µM): 90.4%
residual activity (PAK6 (human); compound 10.0 µM): 94%
residual activity (RPS6KA3 KD1 KD2 (human); compound 0.1 µM): 94.8%
residual activity (RPS6KA3 KD1 KD2 (human); compound 1.0 µM): 93.8%
residual activity (RPS6KA3 KD1 KD2 (human); compound 10.0 µM): 76.3%
residual activity (CSK (human); compound 0.1 µM): 81.8%
residual activity (CSK (human); compound 1.0 µM): 15.4%
residual activity (CSK (human); compound 10.0 µM): 7.86%
residual activity (PLK1 (human); compound 0.1 µM): 103%
residual activity (PLK1 (human); compound 1.0 µM): 91.6%
residual activity (PLK1 (human); compound 10.0 µM): 95%
residual activity (TTK (human); compound 0.1 µM): 91.2%
residual activity (TTK (human); compound 1.0 µM): 98.1%
residual activity (TTK (human); compound 10.0 µM): 66.1%
residual activity (TLK1 (human); compound 0.1 µM): 107%
residual activity (TLK1 (human); compound 1.0 µM): 92.2%
residual activity (TLK1 (human); compound 10.0 µM): 92.1%
residual activity (DYRK2 (human); compound 0.1 µM): 102%
residual activity (DYRK2 (human); compound 1.0 µM): 101%
residual activity (DYRK2 (human); compound 10.0 µM): 94.5%
residual activity (HIPK3 (human); compound 0.1 µM): 110%
residual activity (HIPK3 (human); compound 1.0 µM): 70.3%
residual activity (HIPK3 (human); compound 10.0 µM): 19.8%
residual activity (AURKB (human); compound 0.1 µM): 116%
residual activity (AURKB (human); compound 1.0 µM): 108%
residual activity (AURKB (human); compound 10.0 µM): 118%
SMILES: CCN1CCN(Cc2ccc(NC(=O)c3ccc(C)c(Oc4ccnc5[nH]ccc45)c3)cc2C(F)(F)F)CC1

Source: the kinase profiling compilation of Christmann-Franck et al. (2016)
